# Reference: patent publication US20080051435A1, “Crystalline and amorphous forms of tiagabine” (Cephalon, Inc., priority 2006, published 2008)
# Legend:
# [1] = Solid-form stability on storage at ambient temperature and humidity, XRPD analysis; type: physicochemical; settings: for form conversion during storage: during storage (general description); for solid form by XRPD after storage: stored approximately two months, ambient temperature and humidity, hydrochloride
# Source text: Tiagabine HCl Form K was stored for approximately two months under conditions of ambient temperature and humidity.
# [2] = Moisture sorption/desorption (VTI SGA-100 moisture balance); type: physicochemical
# Description: Moisture sorption/desorption data were collected on a VTI SGA-100 moisture balance system. For sorption isotherms, a sorption range of 5 to 95% relative humidity (RH) and a desorption range of 95 to 5% RH in 10% RH increments were used for analysis. The samples were not dried prior to analysis. Equilibrium criteria used for analysis were less than 0.0100% weight change in 5 minutes with a maximum equilibration time of 3 hours if the weight criterion was not met. Data were not corrected for the initial moisture content of the samples.
smiles,measurement,setting,value
"Cc1ccsc1C(=CCCN1CCC[C@@H](C(=O)O)C1)c1sccc1C.Cl [Tiagabine HCl Form L, tiagabine hydrochloride]",form conversion during storage,[1]; listed as Tiagabine hydrochloride Form L,converts to a mixture of tiagabine hydrochloride Forms B and Q
same,solid form by XRPD after storage,[1],a mixture of tiagabine HCl Forms B and Q
"Cc1ccsc1C(=CCCN1CCC[C@@H](C(=O)O)C1)c1sccc1C [Tiagabine free base Form A, (−)-(R)-1-(4,4-bis(3-methyl-2-thienyl)-3-butenyl)-3-piperidinecarboxylic acid]",solid form by XRPD after moisture sorption/desorption,[2]; XRPD analysis of the sample after moisture sorption/desorption,tiagabine free base amorphous
same,weight loss from 95% to 5% RH,[2]; desorption 95% to 5% RH,18.7%
same,weight loss upon equilibration at 5% relative humidity (RH),"[2]; equilibration at 5% RH, sample not dried prior to analysis",1.0%
same,weight gain from 5% to 95% RH,[2]; sorption 5% to 95% RH,23.5%
"Cc1ccsc1C(=CCCN1CCC[C@@H](C(=O)O)C1)c1sccc1C.Cl [Tiagabine HCl Form K, tiagabine hydrochloride]",form conversion during storage,[1]; listed as Tiagabine hydrochloride Form K,converts to a mixture of tiagabine hydrochloride Forms Q and B
same,solid form by XRPD after storage,[1],a mixture of tiagabine HCl Forms Q and B
